{
  "source": "paper PMC3956299",
  "about": "(Chembiochem : a European journal of chemical biology, 2009)",
  "key": {"[1]": {"target": "T1, Drosophila Golgi α-mannosidase II (dGMII) (Drosophila melanogaster, UniProt Q24451)", "T1 sequence (Q24451 31-1108 limits assumed)": "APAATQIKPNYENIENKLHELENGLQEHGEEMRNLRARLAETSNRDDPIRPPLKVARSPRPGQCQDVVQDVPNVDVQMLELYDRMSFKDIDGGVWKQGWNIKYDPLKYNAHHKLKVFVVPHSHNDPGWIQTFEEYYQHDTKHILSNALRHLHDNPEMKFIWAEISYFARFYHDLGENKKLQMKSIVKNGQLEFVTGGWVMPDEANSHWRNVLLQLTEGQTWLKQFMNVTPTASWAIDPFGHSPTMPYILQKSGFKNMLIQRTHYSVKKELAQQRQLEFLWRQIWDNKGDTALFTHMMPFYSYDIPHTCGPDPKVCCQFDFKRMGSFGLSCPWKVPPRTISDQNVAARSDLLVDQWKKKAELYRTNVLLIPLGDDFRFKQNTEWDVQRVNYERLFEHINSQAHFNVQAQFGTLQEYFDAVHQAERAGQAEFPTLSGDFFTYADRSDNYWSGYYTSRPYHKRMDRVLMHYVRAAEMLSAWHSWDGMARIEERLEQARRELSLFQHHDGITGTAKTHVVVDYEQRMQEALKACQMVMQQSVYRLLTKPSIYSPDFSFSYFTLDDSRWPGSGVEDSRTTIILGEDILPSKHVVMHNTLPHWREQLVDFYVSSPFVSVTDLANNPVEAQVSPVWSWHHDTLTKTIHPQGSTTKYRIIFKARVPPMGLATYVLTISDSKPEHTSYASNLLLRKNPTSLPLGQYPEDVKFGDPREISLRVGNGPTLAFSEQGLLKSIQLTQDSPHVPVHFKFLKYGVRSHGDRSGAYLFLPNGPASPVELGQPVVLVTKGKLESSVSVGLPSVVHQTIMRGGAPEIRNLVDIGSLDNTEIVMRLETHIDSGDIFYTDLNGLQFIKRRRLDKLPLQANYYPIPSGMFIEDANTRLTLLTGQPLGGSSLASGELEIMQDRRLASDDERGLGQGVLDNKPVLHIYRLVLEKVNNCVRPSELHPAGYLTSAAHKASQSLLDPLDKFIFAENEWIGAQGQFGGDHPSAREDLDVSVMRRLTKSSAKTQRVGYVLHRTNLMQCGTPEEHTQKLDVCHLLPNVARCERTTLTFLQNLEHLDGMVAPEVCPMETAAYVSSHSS", "type": "biochemical"}, "[2]": {"system": "processing of influenza viral hemagglutinin in cultured MDCK cells", "conditions": "cited from earlier work"}},
  "data": [
    {"molecule": "CO[C@@H]1[C@@H](N)[C@@H](O)[C@@H](O)[C@H]1O", "note": "[Compound 5, (1R, 2R, 3R, 4S, 5R)-4-Amino-5-methoxycyclopentane-1,2,3-triol]", "values": [
      {"measurement": "fold enhancement of potency on changing hydroxyl of 4 to methoxy", "setting": "[1]; relative to 4 (4a)", "result": "~ 4 fold"}
    ]},
    {"molecule": "CS[C@@H]1[C@@H](N)[C@@H](O)[C@@H](O)[C@H]1O", "note": "[Compound 1, Mannostatin A]", "values": [
      {"measurement": "effect on processing of influenza viral hemagglutinin", "setting": "[2]", "result": "effectively blocked the processing of influenza viral hemagglutinin"}
    ]},
    {"molecule": "N[C@@H]1C[C@H](O)[C@H](O)[C@@H]1O", "note": "[Compound 3, (1S, 2S, 3R, 4R)-4-aminocyclopentane-1,2,3-triol]", "values": [
      {"measurement": "inhibitory activity in words", "setting": "[1]", "result": "very poor inhibitor"}
    ]}
  ]
}
